In the experiment the test system is MM.1S cells. Briefly: CellTiter-Glo cell viability assay. It counts as cell-based. Conditions: Homo sapiens, MM1.S, 72 h, read-out: IC50 cell viability. The method, then:
The MM.1S was obtained from ATCC (Manassas, VA, USA).
For this purpose, the dilution series was prepared at 200× concentration in DMSO and then further diluted to 10× concentration in medium. The final DMSO concentration was 0.5%. The toxicity of compounds was assessed after 72 h using the CellTiter‐Glo 2.0 cell viability assay. Luminescence was then measured, and the IC50 was determined by plotting dose–response curves and performing nonlinear regression using GraphPad Prism.
For this purpose, the dilution series were prepared at 200× concentration in DMSO and then further diluted to 10× concentration in medium. The final DMSO concentration was 0.5%. The toxicity of compounds was assessed after 72 h using the CellTiter-Glo 2.0 cell viability assay. Luminescence was then measured, and the IC50 was determined by plotting dose-response curves and performing nonlinear regression using GraphPad Prism.^[1]
(In general: ATP-based viability assays read luminescence as a measure of living cells.)

On to `O=C(CCCCCCC(=O)Nc1ccccc1)NO` [Vorinostat], for which the IC50 (usually the concentration needed to halve the response being measured) turned out to be 0.79 ± 0.13 µM.
For the compound `O=C(CCCCCCNC(=O)c1cnc(N(c2ccccc2)c2ccccc2)nc1)NO` [Ricolinostat], the IC50 is 2.59 ± 0.27 µM.

The values are drawn from paper PMC12238837, “DCAF16‐Based Covalent Molecular Glues for Targeted Protein Degradation of Histone Deacetylases” (Archiv Der Pharmazie, 2025).
